Data set [1] deals with wild-type mice. As to the kind of experiment: active place avoidance, retraining and retesting in a different context after NSA. Conditions: n's=5, FIG. 6. The format is in vivo, mouse. The text has this: Above, representative diagram of training protocol, similar to that described for FIG. 5. After training, memory erasure by NSA injection in hippocampus, and retention testing in one context, mice are immediately retrained and retested in a different context. NSA on relearning ([…] with repeated measurements). There is a significant interaction between the effects of treatment (control, NSA) and trials (pretraining, training, retention in two environments) (F5,40=4.41, P=0.0027). The main effect of treatment is F1,8=3.34, p=0.10. […] Thus, the effects NSA administration has on inhibiting memory are not due to generalized, permanent damage to neural substrates responsible for learning and memory.

For data set [2], the target named is T1, PKC zeta (Homo sapiens, UniProt Q05513).
T1 construct: made in house
T1 sequence (Q05513 1-592): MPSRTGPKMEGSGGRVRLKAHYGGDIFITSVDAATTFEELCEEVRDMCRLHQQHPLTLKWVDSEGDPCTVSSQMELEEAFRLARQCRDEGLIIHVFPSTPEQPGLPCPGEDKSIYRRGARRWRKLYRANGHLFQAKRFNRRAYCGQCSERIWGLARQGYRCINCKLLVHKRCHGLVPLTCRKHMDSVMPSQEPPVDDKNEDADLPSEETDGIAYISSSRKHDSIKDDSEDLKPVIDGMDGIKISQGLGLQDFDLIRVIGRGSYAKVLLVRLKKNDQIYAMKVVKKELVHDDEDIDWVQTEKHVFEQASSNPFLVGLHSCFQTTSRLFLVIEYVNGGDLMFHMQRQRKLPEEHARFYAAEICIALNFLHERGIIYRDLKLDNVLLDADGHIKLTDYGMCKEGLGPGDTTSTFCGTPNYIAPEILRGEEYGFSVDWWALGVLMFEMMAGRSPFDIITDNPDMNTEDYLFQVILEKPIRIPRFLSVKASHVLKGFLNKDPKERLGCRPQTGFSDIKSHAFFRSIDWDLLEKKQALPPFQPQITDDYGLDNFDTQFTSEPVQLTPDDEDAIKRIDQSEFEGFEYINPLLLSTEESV
In words: kinase activity assay ([γ-32P]ATP, e-peptide substrate), PKC zeta. Format: biochemical. How it is done:
(§1) In separate experiments, PKC zeta and PKM zeta were recombinantly expressed and purified. PKC iota/lambda was purchased from ProQinase GmbH (Freiburg, Germany). The reaction mixture ([…] final volume) contained: 50 mM Tris-HCl (pH 7.4), 10 mM MgCl2, 1 mM DTT, […] e-peptide substrate (ERMRPRKRQGSVRRRV, AnaSpec, Freemont, Calif.), in the presence or absence of phosphatidylserine (5 mg/ml, Avanti Polar Lipids, Alabaster, Ala.), and PKC iota/lambda (184 ng, 0.2 pmol/min per assay) or PKM zeta (4 ng, 0.2 pmolmin-1/assay), in the presence or absence of NSA at concentrations given on the X axis. The reaction, initiated with the addition of […] (final concentration, ˜1-3 μCi [γ-32P]/assay), was for 30 min at 30° C., which is in the linear range for enzyme concentration (data not shown). The reaction was stopped by addition of […] of 100 mM cold ATP and 100 mM EDTA, and 40 ml of the reaction mixture was spotted onto phosphocellulose paper and counted by liquid scintillation. Activity was measured as the difference between counts incorporated in the presence and absence of enzyme. Autonomous kinase activity is defined as activity in the absence of phosphatidylserine. […] Thus, as disclosed herein, administering NSA inhibits activity of PKC zeta and PKM zeta.

The subject of data set [3] is hippocampal slices from mice lacking expression of PKC zeta/PKM zeta. In words: maintenance of LTP in hippocampal slices from PKC zeta/PKM zeta null mice. Format: cell-based, mouse. To be noted: FIG. 4. The protocol: Acute mouse hippocampal slices (450 μm) were dissected, bathed in ice-cold dissection buffer, and sliced with a McIlwain tissue slicer in a cold room (4° C.). The dissection buffer contained (in mM): 125 NaCl, 2.5 KCl, 1.25 NaH2PO4, 26 NaHCO3, 11 glucose, 10 MgCl2, and 0.5 CaCl2, and was bubbled with 95% O2/5% CO2 to maintain the pH at 7.4. The slices were immediately transferred into an interface recording chamber (31.5±1° C.). The recording superfusate consisted of (in mM): 118 NaCl, 3.5 KCl, 2.5 CaCl2, 1.3 MgSO4, 1.25 NaH2PO4, 24 NaHCO3, and 15 glucose, bubbled with 95% O2/5% CO2, with a flow rate of 0.5 ml/min. […] Pathway independence was confirmed by the absence of paired-pulse facilitation between the two pathways. The high-frequency stimulation consisted of standard two 100 Hz-1 s tetanic trains, at 25% of spike threshold, spaced 20 s apart, which is optimized to produce a relatively rapid onset of protein synthesis-dependent late-LTP. The maximum slope of the rise of the fEPSP is analyzed on a PC using the WinLTP data acquisition program. Application of NSA (black bar) beginning 3 hr after application of high-frequency stimulation reversed the maintenance of LTP seen during this time period, which is known to require PKC zeta/PKM zeta activity. […]

The subject of data set [4] is PKCζ-null mice. In words: active place avoidance, long-term memory retention, PKC zeta/PKM zeta null mice. Format: in vivo, mouse. Conditions: 5 nmol in 0.5 μl/hippocampus, 1 day after training, FIG. 5. How it is done: (§2) A commercial computer-controlled active place avoidance system was used (Bio-Signal Group, Acton, Mass.). The position of the mouse on a 40 cm diameter circular arena rotating at 1 rpm was determined 30 times per second by video tracking from an overhead camera (Tracker, Bio-Signal Group). All experiments used the ‘Room+Arena−’ task variant that challenges the mouse on the rotating arena to avoid a shock zone that was a stationary 60° sector. A constant current foot-shock (60 Hz, 500 ms) was delivered after entering the shock zone for 500 ms and was repeated each 1500 ms until the mouse left the shock zone. The arena rotation periodically transported the animal into the shock zone, forcing it to actively avoid the location of shock. The shock amplitude was 0.2 or 0.3 mA, which was determined for each animal in the first session to be the minimum that elicited flinch or escape responses.
(§3) A clear wall made from Polyethylene Terephtalate Glycol-modified (PET-G) prevented the animal from jumping off the elevated arena surface. […] Every 33 ms, the software determined the mouse's position, whether it was in the shock zone, and whether to deliver shock. The time series of the tracked positions was analyzed offline (TrackAnalysis, Bio-Signal Group) to extract a number of end point measures. […]

In data set [5] the test system is wild-type mice. As to the kind of experiment: active place avoidance, long-term memory retention, wild-type mice. The format is in vivo, mouse. To be noted: 5 nmol in 0.5 μl/hippocampus, 1 day after training, FIG. 5. How it is done:
as §2, §3

Data set [6] has as its target T2, PKC iota/lambda (Homo sapiens, UniProt P41743).
T2 construct: purchased ProQinase GmbH (Freiburg, Germany)
T2 sequence (P41743 1-596): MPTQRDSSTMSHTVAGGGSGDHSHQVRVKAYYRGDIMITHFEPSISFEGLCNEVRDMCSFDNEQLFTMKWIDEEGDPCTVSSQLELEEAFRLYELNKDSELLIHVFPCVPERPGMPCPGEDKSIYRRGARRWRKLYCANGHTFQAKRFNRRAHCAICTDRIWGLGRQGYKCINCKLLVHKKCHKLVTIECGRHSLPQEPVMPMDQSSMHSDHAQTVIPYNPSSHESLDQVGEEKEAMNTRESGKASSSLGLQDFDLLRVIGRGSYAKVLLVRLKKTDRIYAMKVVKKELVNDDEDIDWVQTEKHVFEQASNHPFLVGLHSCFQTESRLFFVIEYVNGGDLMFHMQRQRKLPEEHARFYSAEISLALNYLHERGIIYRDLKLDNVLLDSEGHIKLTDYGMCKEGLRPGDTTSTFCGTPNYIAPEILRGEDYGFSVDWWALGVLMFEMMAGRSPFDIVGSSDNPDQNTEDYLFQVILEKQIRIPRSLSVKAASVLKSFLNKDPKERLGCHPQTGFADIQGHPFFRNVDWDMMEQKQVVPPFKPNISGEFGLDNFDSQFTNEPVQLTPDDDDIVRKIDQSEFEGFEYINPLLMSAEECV
As to the kind of experiment: kinase activity assay ([γ-32P]ATP, e-peptide substrate), PKC iota/lambda. Format: biochemical. To be noted: at doses up to 10 μM. How it is done: as §1

Data set [7] deals with hippocampal slices from wild-type mice. In words: maintenance of LTP in hippocampal slices from wild-type mice. Format: cell-based, mouse. Conditions: NSA 10 μM applied 3 h post-tetanization, FIG. 3. The protocol: Acute mouse hippocampal slices (450 μm) were dissected, bathed in ice-cold dissection buffer, and sliced with a McIlwain tissue slicer in a cold room (4° C.). The dissection buffer contained (in mM): 125 NaCl, 2.5 KCl, 1.25 NaH2PO4, 26 NaHCO3, 11 glucose, 10 MgCl2, and 0.5 CaCl2, and was bubbled with 95% O2/5% CO2 to maintain the pH at 7.4. The slices were immediately transferred into an interface recording chamber (31.5±1° C.). The recording superfusate consisted of (in mM): 118 NaCl, 3.5 KCl, 2.5 CaCl2, 1.3 MgSO4, 1.25 NaH2PO4, 24 NaHCO3, and 15 glucose, bubbled with 95% O2/5% CO2, with a flow rate of 0.5 ml/min. […] Pathway independence was confirmed by the absence of paired-pulse facilitation between the two pathways. The high-frequency stimulation consisted of standard two 100 Hz-1 s tetanic trains, at 25% of spike threshold, spaced 20 s apart, which is optimized to produce a relatively rapid onset of protein synthesis-dependent late-LTP. The maximum slope of the rise of the fEPSP is analyzed on a PC using the WinLTP data acquisition program. Application of NSA (black bar) beginning 3 hr after application of high-frequency stimulation reversed the maintenance of LTP seen during this time period, which is known to require PKC zeta/PKM zeta activity.

This is an account of results in US11446264B2, “Memory manipulation via modification of protein kinase C zeta activity” (THE RESEARCH FOUNDATION FOR THE STATE UNIVERSITY OF NEW YORK, priority 2017, dated 2022).

Molecules are shown by their SMILES.

Take `O=S(=O)(O)c1cc(O)c2c(S(=O)(=O)O)cc(S(=O)(=O)O)cc2c1` [NSA, 1-naphthol-3,6,8-trisulphonic acid]: the “memory retention of the pre-injection training” value in data set [1] (NSA injection in hippocampus) is “disrupts memory retention”. Besides, in data set [1] (retrained and retested after NSA injection in hippocampus), the “memory retention of the post-injection training (different context)” value is listed as “no effect”. For the same compound, the IC50 in data set [2] (FIG. 2, mean±SEM, ns=3, 30 min at 30° C., read-out: IC50 as a negative modulator of PKC zeta/PKM zeta activity) lay in the range of 100 to 200 nM. For the same compound, the “decrease of PKC zeta/PKM zeta activity” value in data set [2] (FIG. 2, extent of decrease) is “approximately 50%”. Besides, the “maintenance of LTP (fEPSP slope)” value in data set [3] is recorded as “no effect on maintenance of LTP”; in data set [7], “reverses maintenance of LTP”. The “retention of avoidance (time to first enter the shock zone)” value is “did not affect retention testing” in data set [4] and “inhibited retention of avoidance” in data set [5]. Moreover, the “effect on PKC iota/lambda kinase activity” value in data set [6] is listed as “without effect”.
